Tests used:
[1] = test system: lipid biosynthetic genes and lactose biosynthetic genes; assay: Mammary lipid and lactose biosynthetic gene expression; format: in vivo, mice; details: NR in the diet
Excerpt: (§1) FIGS. 13A-D. NR boosts prolactin circulation and mammary biosynthetic pathways for protein, fat and carbohydrate. FIG. 13A. Prolactin levels in plasma from dam on NC or NR chow. FIG. 13B. mTOR pathway is activated in NR-supplemented mammary tissue. FIG. 13C. Genes involved in lipid biosynthesis are activated in NR-supplemented mammary tissue. FIG. 13D. Genes involved in lactose synthesis pathway are activated in NR-supplemented mammary tissue. […] In addition, the size of the mammary tissue itself is greater in NR-supplemented mothers than in non-supplemented mothers (FIG. 14A).

prolactin = assay: Prolactin levels in plasma from dam; format: in vivo, mice; details: plasma from dam on NC or NR chow
Excerpt: as §1

[2] = Brain size and caudate putamen of offspring; format: in vivo, mice
Excerpt: FIGS. 24A-D. 69 days after their mother's intervention, the female offspring tend to have larger brains […] (FIG. 24A). Pups of NR-supplemented moms show advanced pruning of the caudate putamen at day 22 (FIGS. 24B-C); however, the caudate putamen in pups from NR-supplemented mothers grows to a normal size in adulthood (FIG. 24D). The order of the bars from left to right are: males of normal chow (NC) mothers (white with light grey outline), followed by males of NR-supplemented mothers (filled light grey), followed by females of NC mothers (white with dark grey outline), followed by females of NR-supplemented mothers (filled dark grey). At 91 days, the mice were sacrificed and examined with respect to their brains. In FIG. 24A, it was shown that female mice from NR-supplemented mothers have larger brains in adulthood. We hypothesized that the caudate putamen, which is the motor learning center of the brain, may have developed more rapidly in mice whose mothers had been NR-supplemented either due to the increased quality and/or quantity of milk they received and/or improved maternal care.

[3] = Open field test of offspring; format: in vivo, mice
Procedure: The order of the bars from left to right are: males of normal chow (NC) mothers (white with light grey outline), followed by males of NR-supplemented mothers (filled light grey), followed by females of NC mothers (white with dark grey outline), followed by females of NR-supplemented mothers (filled dark grey). […] These adults were treated identically ever since weaning. The only difference is whether the mother was NR-supplemented for 21 days. They are faster and more adventurous. The order of the bars from left to right are: males of normal chow (NC) mothers (white with light grey outline), followed by males of NR-supplemented mothers (filled light grey), followed by females of NC mothers (white with dark grey outline), followed by females of NR-supplemented mothers (filled dark grey). At 15 days of age, it was observed that the offspring of NR-supplemented mothers were more physically active. In this experiment, the physical activity of male and female offspring of mothers supplemented or not with NR at 15 days of age was quantified. […] At 21 days, the offspring were removed from their mothers and put on normal chow […]. While offspring of NR could have been put on NR chow, we aimed to determine if the 21 day intervention to their mothers was sufficient for a lasting effect on their neurocognitive and/or physical development.

[4] = test system: NAD biosynthetic genes in the mammary glands; assay: Mammary NAD biosynthetic gene expression and NAD metabolites; format: in vivo, mice
Excerpt: FIGS. 12A-D. Lactation and NR boost the mammary NAD program. FIG. 12A. NR promotes expression of NAD biosynthetic genes in the mammary glands. FIG. 12B. […] FIG. 12C. Lactation boosts NMN in mammary. FIG. 12D. Lactation and NR boost mammary NR in an additive manner. […] As shown in FIGS. 12B-12C, maternal NAD and NMN are elevated in the mammary of lactating mammary with respect to nonlactating mammary tissue.

[5] = Maternal weight gain, NR chloride in chow from 12 weeks before mating through weaning; format: in vivo; details: female mice, NC+NR vs NC
Excerpt: Mice are a widely used model of human metabolism because they are capable of recapitulating many aspects of human health. […] Therefore, mice were used in a series of in vivo experiments to evaluate whether maternally supplemented NR has the ability to improve maternal and/or neonatal health and development. Specifically, it was asked whether addition of NR chloride (3 g/kg of chow) to the diet of female mice would alter their health during and after pregnancy and whether this administration would produce any beneficial effects on the pups.
(§2) Female C57BL/6N mice were raised in 12 hour light:dark cycles on Teklad 2920X chow (NC). For 12 weeks prior to mating with a single C57BL/6N male, females were on either NC (n=4) or NC+NR (n=4). Females were maintained on the same diet through gestation and weaning, which was at 21 days after birth.

[6] = Offspring body composition, brain mass and activity at weaning (Example 1); format: in vivo, mice
Procedure: as §2, with “birth. […] The improved body composition of mice from NR-supplemented mothers was entirely unexpected.” for “birth.”

[7] = Post-partum NR supplementation: maternal body mass, food consumption, body composition; format: in vivo, mice; details: NR only after birth
Excerpt: FIGS. 6A-D. NR-supplemented mouse mothers lose weight during the 21 day lactation period without diminished food consumption (day 7-21). Delta body mass refers to day 21 post-partum maternal weight minus day 0 post-partum weight (FIG. 6A). Food consumption was day 7-21 (FIG. 6B). NR-supplemented mothers tend to lose fat (FIG. 6C) and maintain lean mass (FIG. 6D). Body composition refers to day 21 post-partum maternal fat and lean mass minus day 0 post-partum maternal fat and lean mass. A series of in vivo murine experiments were performed to evaluate whether maternally supplemented NR has the ability to improve maternal and neonatal health and development.

mTOR pathway = assay: phospho-mTOR in mammary tissue; format: in vivo, mice; details: NR-supplemented mothers
Excerpt: as §1

In the case of `NC(=O)c1ccc[n+]([C@@H]2O[C@H](CO)[C@@H](O)[C@H]2O)c1` [NR, nicotinamide riboside], the “mammary lactose biosynthetic genes” value [1] is reported as “strongly induced”, the “mammary lipid biosynthetic genes” value [1] is reported as “strongly induced” and the circulating prolactin (prolactin) is reported as “very high levels”. The “brain size in adulthood” value ([2]; 91 days, female mice from NR-supplemented mothers) was “larger”, the “caudate putamen in adults” value ([2]; adult offspring) was “not affected” and the “caudate putamen pruning (area of PSD95 staining)” value ([2]; female weanlings) was “clearly advanced pruning”. The “caudate putamen size in weanlings” value ([2]; weanlings at 21 days) was “slightly smaller”, the “physical activity in open field test” value ([3]; 15 days of age, first 5 minutes) was “much more physically active” and the “time in the center of the open field test” value ([3]; 15 days of age, males, middle 5 minute epoch) was “significant amount of time in the center”. The “time in the center of open field test” value ([3]; 70 day-old adult males) was “less time in the center”, the “immobile time in open field test” value ([3]; 70 day-old adults) was “tendency toward less immobile time” and the “speed in open field test” value ([3]; 70 day-old adults) was “move faster”. For the same compound, the “distance covered in open field test” value ([3]; 70 day-old adults, 49 days after mother's intervention) was “cover more distance”, the “mammary NR” value ([4]; lactating female mouse, above level in lactating female) was “large increase” and the “mammary NAD+ levels” value ([4]; lactating mammary gland, NR supplementation) was “tends to further increase”. The “expression of NAD biosynthetic genes in lactating mammary” value ([4]; mother supplemented with NR) was “very high level of expression”, the “maternal body fat at the time of weaning” value [5] was “tended to have lower body fat” and the “weight gain from the day of mating to the day of weaning” value ([5]; NR chloride 3 g/kg of chow) was “protected from this weight gain”. The “physical activity of fasted neonates” value ([6]; NR in the diet of female mice) was “greater physical activity”, the “body composition (fat mass) of mice raised by NR-supplemented mothers” value ([6]; at weaning) was “leaner” and the “brain mass of mice raised by NR-supplemented mothers” value ([6]; at weaning) was “tend toward larger brains”. The maternal food consumption ([7]; day 7-21) was “as least as much as non-supplemented mothers”, the maternal body weight ([7]; day 21 minus day 0 post-partum) was “lost significant weight” and the maternal fat mass ([7]; day 21 minus day 0 post-partum) was “lost significant weight, specifically in fat mass”. The maternal lean mass ([7]; day 21 minus day 0 post-partum) was “maintained their lean mass” and the phosph-mTOR in mammary (mTOR pathway) was “higher level”.

Reference: US11633421B2, “Use of NAD precursors for improving maternal health and/or offspring health” (UNIVERSITY OF IOWA RESEARCH FOUNDATION, priority 2016, dated 2023)
